Literature values in US8722114B2, “Compositions and methods for increasing human growth hormone levels” (Quality IP Holdings, LLC, priority 2012, dated 2014).

How the values were obtained:
[1] = subcutaneous injection of 0.06 IU, GH deficient subjects

Molecule: N=C(N)NCCC[C@H](N)C(=O)O [arginine]
- Elevation of serum hGH levels (hGH; 30 g, intravenous, in males): 8.6 fold
- Increase of hGH levels (hGH; intravenous infusion of 183 mg/kg body weight in females): > 20 fold

Molecule: HGH: human growth hormone, injected subcutaneously in a cited study
- Mean levels of GH reached [1]: 0.4 ng/mL
